Assay results as given in ChEMBL document CHEMBL2331164, “Aspulvinones from a mangrove rhizosphere soil-derived fungus Aspergillus terreus Gwq-48 with anti-influenza A viral (H1N1) activity” (Bioorg Med Chem Lett, 2013).
Converted amounts (≈) assume the structure as drawn.

Experiments:
[1] = biological target: Neuraminidase (Influenza A virus (A/Puerto Rico/8/1934(H1N1))) (UniProt P03468); test: (§1) Inhibition of inactivated Influenza A virus (A/Puerto Rico/8/1934(H1N1)) neuraminidase using MUNANA as substrate incubated for 60 mins prior to substrate addition measured after 45 mins by fluorescence assay
Sequence of Neuraminidase (Influenza A virus (A/Puerto Rico/8/1934(H1N1))) (P03468 whole entry): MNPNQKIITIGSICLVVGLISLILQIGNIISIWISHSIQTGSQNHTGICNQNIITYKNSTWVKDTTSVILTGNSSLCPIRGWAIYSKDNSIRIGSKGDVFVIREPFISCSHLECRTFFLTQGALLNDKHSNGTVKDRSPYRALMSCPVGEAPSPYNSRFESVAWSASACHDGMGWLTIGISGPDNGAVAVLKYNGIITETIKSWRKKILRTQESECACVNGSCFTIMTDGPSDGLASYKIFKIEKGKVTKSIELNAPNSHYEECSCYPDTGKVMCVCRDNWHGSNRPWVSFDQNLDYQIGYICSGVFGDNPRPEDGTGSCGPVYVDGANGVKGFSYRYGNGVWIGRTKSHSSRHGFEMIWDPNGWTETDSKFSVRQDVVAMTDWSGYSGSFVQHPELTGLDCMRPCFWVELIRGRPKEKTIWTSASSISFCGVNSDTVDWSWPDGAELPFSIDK

[2] = biological target: Neuraminidase (Influenza A virus (A/Puerto Rico/8/1934(H1N1)), UniProt P03468); test: as §1
Sequence of Neuraminidase (Influenza A virus (A/Puerto Rico/8/1934(H1N1)), UniProt P03468) (P03468 whole entry): as above

[3] = Cytotoxicity against human A549 cells assessed as cell viability after 72 hrs by MTT assay; type: cell-based
[4] = Cytotoxicity against MDCK cells assessed as cell viability after 72 hrs by MTT assay; type: cell-based, Canis lupus familiaris; conditions: dog
Influenza A virus = test: microbe, parasite or virus in culture; conditions: A/Puerto Rico/8/1934(H1N1), MDCK, 48 h
[5] = biological target: Neuraminidase (Influenza A virus (A/Puerto Rico/8/1934(H1N1))) (UniProt P03468); test: Inhibition of inactivated Influenza A virus (A/Puerto Rico/8/1934(H1N1)) neuraminidase using MUNANA as substrate at 100 ug/mL incubated for 60 mins prior to substrate addition measured after 45 mins by fluorescence assay relative to control

SMILES | inhibition [1] | IC50 [2] [µM] | CC50 at 72 h [3] [µg/mL] | CC50 at 72 h [4] [µg/mL] | IC50 (Influenza A virus) [µg/mL] | inhibition [5] [%]
O=C1O/C(=C/c2ccc(O)cc2)C(O)=C1c1ccc(O)cc1 [ISOASPULVINONE E] | Dose-dependent effect | 210 | > 250 | > 250 | 32.3 (≈ 109 µM) | 60
CC(=O)N[C@H]1[C@H]([C@H](O)[C@H](O)CO)OC(C(=O)O)=C[C@@H]1NC(=N)N [ZANAMIVIR] | – | – | – | – | 0.0284 (≈ 0.0855 µM) | –
O=C1O/C(=C(/C(=O)O)c2ccccc2)C(O)=C1c1ccccc1 [PULVIC ACID] | – | – | > 250 | > 250 | 29.1 (≈ 94.4 µM) | –
O=C1O/C(=C\c2ccc(O)cc2)C(O)=C1c1ccc(O)cc1 [ASPULVINONE E] | – | – | > 250 | > 250 | 56.9 (≈ 192 µM) | –
